# Measurements taken from patent US7696243B2, “Pyrrolidin-2-one derivatives for use as DP1 receptor agonists” (Merck Serono, S.A., priority 2004, dated 2010).
# Entries after “also recorded” stand apart in the source; their conditions may differ.
# How the values were obtained:
# h-DP1 [1] = target: T1, h-DP1 (Homo sapiens, UniProt Q13258); experiment: DP1 receptor binding assay (SPA, receptor membranes)
# T1 construct: expressed in transfected cells; host or cells: HEK293-EBNA
# T1 sequence (Q13258 1-359): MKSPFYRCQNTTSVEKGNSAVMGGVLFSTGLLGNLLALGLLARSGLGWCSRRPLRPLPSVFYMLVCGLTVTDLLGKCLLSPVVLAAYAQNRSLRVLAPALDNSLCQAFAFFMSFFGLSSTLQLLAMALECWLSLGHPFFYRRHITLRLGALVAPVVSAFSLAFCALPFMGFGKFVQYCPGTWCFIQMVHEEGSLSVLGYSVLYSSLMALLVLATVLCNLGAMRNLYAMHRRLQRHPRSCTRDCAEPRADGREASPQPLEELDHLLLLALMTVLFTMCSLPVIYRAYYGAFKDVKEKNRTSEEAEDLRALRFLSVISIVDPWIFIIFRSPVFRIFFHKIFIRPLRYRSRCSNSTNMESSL
# Method: (§1) HEK 293(ebna) cells or other cells stably transfected with the appropriate receptor are maintained in culture, harvested and membranes are prepared by differential centrifugation, following lysis of the cells in the presence of protease inhibitors, for use in receptor binding assays.
# (§2) Prostanoid receptor binding assays are performed in 10 mM MES/KOH (pH 6.0) (EPs, FP and TP) or 10 mM HEPES/KOH (pH 7.4) (DP and IP), containing 1 mM EDTA, 10 mM divalent cation and the appropriate radioligand for the given receptor. The reaction is initiated by addition of membrane protein. Typically, the ligands are added in a solvent such as dimethylsulfoxide which is kept constant at 1% (v/v) in all incubations. Non-specific binding is determined in the presence of 1 μM of the corresponding non-radioactive prostanoid. Incubations are conducted for 60 min at room temperature or 30° C. and terminated by rapid filtration. Specific binding is calculated by subtracting non-specific binding from total binding. The residual specific binding at each ligand concentration is calculated and expressed as a function of ligand concentration in order to construct sigmoidal concentration-response curves for determination of ligand affinity.
# (§3) In another protocol, compounds of the invention are tested in DP1 receptor binding assay of the following protocol. A mixture containing 20 μg of DP1 receptor membranes, 0.5 mg of wheat germ agglutinin coated PVT-SPA beads, plus or minus a test compound of the invention (25 μl per well) or 10 μM of cold PGE2 at 1% DMSO and 20 nM radiolabeled ligand for the receptor (e.g., tritiated-PGE2) in assay buffer containing 25 mM MES, 10 mM MgCl2, 1 mM EDTA, pH 6.0 are incubated in Corning 3600 plates on a plate shaker for 2 hrs at room temperature. Binding of the radiolabeled ligand binding is evaluated by counting the plates on the top count using the 3H SPA dpm2 program. % Binding and Ki value for inhibitors are calculated based on the one site competition parameter using the Graphpad® prism program. Such an assay may be modified by employing the different receptors and their specific ligands to assess the activity of the compounds of the present invention against such receptors. Using such an assay, the DP1 Ki values for a number of exemplary compounds of the present invention were calculated and are shown in Table 1.
# h-DP1 [2] = target: T1, h-DP1; experiment: Whole cell second messenger (cAMP) assay on cells expressing DP1; type: cell-based
# Method: Whole cell second messenger assays measuring stimulation (EP2, EP4, DP1, DP2 and IP in HEK 293(ebna) cells) or inhibition (EP3 in human erythroleukemia (HEL) cells) of intracellular cAMP accumulation or mobilization of intracellular calcium (EP1, FP and TP in HEK 293(ebna) cells stably transfected with apo-aequorin) are performed to determine whether receptor ligands are agonists or antagonists. For cAMP assays, cells are harvested and resuspended in HBSS containing 25 mM HEPES, pH 7.4. Incubations contain 100 μM RO-20174 (phosphodiesterase type IV inhibitor, available from Biomol) and, in the case of the EP3 inhibition assay only, 15 μM forskolin to stimulate cAMP production.
# Samples are incubated at 37° C. for 10 min, the reaction is terminated and cAMP levels are then measured. For calcium mobilization assays, cells are charged with the co-factors reduced glutathione and coelenterazine, harvested and resuspended in Ham's F12 medium. Calcium mobilization is measured by monitoring luminescence provoked by calcium binding to the intracellular photoprotein aequorin. Ligands are added in dimethylsulfoxide which is kept constant at 1% (v/v) in all incubations.
# For agonists, second messenger responses are expressed as a function of ligand concentration and both EC50 values and the maximum response as compared to a prostanoid standard are calculated. For antagonists, the ability of a ligand to inhibit an agonist response is determined by Schild analysis and both KB and slope values are calculated.
# In another exemplary protocol, HEK293-EBNA cells transfected with the appropriate receptors are seeded in 96 well opaque plate (Costar #3917) at 4×10^4 cells per well in 100 μl of culture medium (D-MEM/F12 supplemented with 10% FBS, […] L-glutamine, and 250 μg/ml of hygromycin; all from GibcoBRL) and incubated at 37° C. After overnight incubation, the medium was removed from each well and replaced with 45 μl of assay medium consisted of phenol red free D-MEM/F-12, 0.1% BSA (GibcoBRL) and 0.1 mM 3 isobutyl-1-methyl-xanthine (Sigma). After 15 minutes of incubation at 37° C., 16-16-dimethyl PGE-2 or compounds at desired concentrations in 20 μl of assay medium were added to cells and further incubated at 37° C. for 1 hour. Total cAMP (intra- and extracellular) was measured by using a cAMP-screen ELISA System (Tropix #CS1000).
# h-DP2 = target: T2, h-DP2 (Homo sapiens, UniProt Q9Y5Y4); experiment: Prostanoid receptor binding assay, DP2; details: n = 2
# T2 construct: expressed in transfected cells; host or cells: HEK 293(ebna) cells or other stably transfected cells; membranes
# T2 sequence (Q9Y5Y4 1-395): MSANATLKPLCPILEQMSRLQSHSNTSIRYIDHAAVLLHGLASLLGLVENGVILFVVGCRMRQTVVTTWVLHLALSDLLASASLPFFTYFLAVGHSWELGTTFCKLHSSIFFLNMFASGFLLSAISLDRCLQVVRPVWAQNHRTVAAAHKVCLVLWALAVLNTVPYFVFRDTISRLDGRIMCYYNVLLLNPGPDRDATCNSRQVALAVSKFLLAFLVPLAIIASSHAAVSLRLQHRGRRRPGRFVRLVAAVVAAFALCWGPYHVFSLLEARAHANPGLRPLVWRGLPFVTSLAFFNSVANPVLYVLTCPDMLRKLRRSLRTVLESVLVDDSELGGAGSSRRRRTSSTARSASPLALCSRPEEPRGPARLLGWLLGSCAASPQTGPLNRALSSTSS
# Method: as §1, §2, §3
# [3] = test system: human penile cavernosal tissue strips; experiment: Organ bath: relaxation of human penile cavernosal tissue strips after contraction with phenylephrine
# Method: Human tissue procurement. Cavernosal tissue is obtained from patients undergoing penile prosthesis implantation surgery for treatment of erectile dysfunction. In the operating room, biopsies of the corpora cavernosa are immediately placed in chilled (4° C.) physiologic salt solution and transported to the laboratory. Tissue strips, measuring approximately 3 mm×3 mm×10 mm, are cut and prepared for organ bath studies.
# Preparation of compound stock solutions and dose responses. PGE1 (Cayman Chemical Co., Ann Arbor, Mich.) is stored at −20° C. in solid form until the day of use. Stock solutions are made by adding 1 ml of 70% DMSO to a vial containing 1 mg of PGE1. Compounds of the invention are dissolved in 1 ml of 70% DMSO, divided into 100 μl aliquots and stored at −20° C. until use. For dose responses in organ baths, stock solutions of PGE1 and compounds of the invention are diluted with 70% DMSO to make the highest concentration and then serially diluted with 2% DMSO for all other doses. In a typical dose response curve, the concentration of DMSO is checked to remain below […] in the 25 ml bath and to not exceed 0.5% at the highest dose.
# Organ bath studies. Human or rabbit cavernosal tissue strips are mounted onto a fixed support with silk ties and attached to a tension transducer (model FT03; GrassTelefactor, Astro-Med, Inc. West Warwick, R.I.) with a rigid metal wire. After mounting, tissue strips are immersed in 25 ml baths of physiologic salt solution (PSS; 118.3 mM NaCl, 4.7 mM KCl, 0.6 mMMgSO4, 1.2 mMKH2PO4, 2.5 mMCaCl2, 25 mMNaHCO3, 0.026 mM CaNa2EDTA, 11.1 mM glucose). The solution is gassed with 95% […]/5% CO2 to attain a pH of 7.4 and the temperature is maintained at 37° C. All tissue strips are treated with 3 μM indomethacin to inhibit endogenous prostanoid production and minimize spontaneous contractile activity. The corpus cavernosum tissue is stretched incrementally and the optimal resting isometric tension for contraction is determined. After every 3-4 stretches (1 g tension/stretch), the tissue is contracted with 1 μM phenylephrine. When the amplitude of the phenylephrine-induced contraction is within 10% of the previous contraction, that tension is considered optimal for isometric contraction. All tissue strips are extensively washed with fresh PSS. Tissue strips are then contracted with 1 μM phenylephrine. After stable tone is achieved, tissue strips are exposed to increasing concentrations of PGE1 or compounds of the invention.
# Data analysis. At the end of each experiment, all tissue strips are treated with 10 μM papaverine and 10 μM nitroprusside to induce maximal relaxation (100%). The total amount of relaxatory response over the range of drug concentrations tested is determined by the area under the plotted curves. EC50 values are calculated using Prism software (GraphPad, San Diego, Calif.). For final analysis of data, relaxation parameters are compared using ANOVA. If the ANOVA p-value is less than 0.05, paired post-test comparisons is carried out using the Tukey-Kramer test.
# rabbits = experiment: In vivo intracavernosal injection, erectile response (ICP/SAP); details: rabbit
# Method: DP agonists were solubilized in 40% propylene glycol and administered by intracavernosal injection to deliver the indicated dose in 0.1 ml total volume. Since penile intracavernosal pressure (ICP) is ultimately limited by the systemic arterial pressure (SAP), all erectile responses were normalized by calculating the ration of ICP/SAP.
# [4] = after contraction with phenylephrine
Compound,Ki (h-DP1 [1]),EC50 (h-DP1 [2]),Ki (h-DP2),"EC50 [3, 4]",further results
"O=C(O)CCCCCC[C@H]1CCC(=O)N1CCC(O)C1CCCCC1 (stereo in doubt) [Example 4, 7-{(2S)-1-[(3R)-3-cyclohexyl-3-hydroxypropyl]-5-oxopyrrolidin-2-yl}heptanoic acid]",47.2 nM,1.38 nM,> 10000 nM,–,–
"O=C(O)CCCCCCC1C(=O)NC(=O)N1CCC(O)C1CCCCC1 (stereo not shown) [BW245C, reference compound]",–,0.031 nM,–,59 nM,–
"O=C(O)c1ccc(CCC[C@H]2CCC(=O)N2CC[C@@H](O)C2CCCCC2)cc1 [Example 1, 4-(3-(2S)-1-[(3R)-3-cyclohexyl-3-hydroxypropyl]-5-oxotetrahydro-1H-2-pyrrolylpropyl)benzoic acid]",2.4 nM,–,> 10000 nM,–,"EC50 ([3]; Homo sapiens, after contraction with phenylephrine): 29 nM; Relaxation of human penile cavernosal tissue strips (in words) [3, 4]: dose-dependent relaxation; Extent of relaxation (maximal effect) versus BW245C ([3]; human cavernosal tissue): greater; Systemic blood pressure (rabbits; any dose): no overt changes; Arterial pressure (rabbits; intracavernosal): remained constant; Duration of transient episodes of penile tumescence (rabbits; intracavernosal): 1 to 3 min; ICP/SAP (peak response or AUC) compared to vehicle (rabbits; intracavernosal): dose-dependant increases; Penile response at highest dose (rabbits; intracavernosal, 5 μg, single animals): repeated and transient episodes of spontaneous penile tumescence; also recorded: penile resistance arteries were fully dilated; Penile tumescence after intracavernosal injection (rabbits; intracavernosal, 40% propylene glycol): sustained periods of penile tumescence or transient episodes"
"O=C(O)c1ccc(CCC[C@H]2CCC(=O)N2CC[C@H](O)C2CCCCC2)cc1 [Example 2, 4-(3-(2S)-1-[(3S)-3-cyclohexyl-3-hydroxypropyl]-5-oxotetrahydro-1H-2-pyrrolylpropyl)benzoic acid]",10.5 nM,0.71 nM,> 10000 nM,–,–
"O=C(O)CCCCCC[C@H]1CCC(=O)N1CC[C@@H](O)C1CCCCC1 [Example 3, 7-{(2S)-1-[(3R)-3-cyclohexyl-3-hydroxypropyl]-5-oxopyrrolidin-2-yl}heptanoic acid]",1.8 nM,0.037 nM,> 10000 nM,–,–

# Further lines, with some results ahead:
Ki (h-DP1 [1]),EC50 (h-DP1 [2]),Ki (h-DP2),"EC50 [3, 4]",Compound,further results
4.1 nM,0.3 nM,–,0.3 nM,CCCCC[C@H](O)/C=C/[C@H]1C(=O)C[C@H](O)[C@@H]1C/C=C\CCCC(=O)O [PGD2],"Effect at concentrations higher than 0.3 μM ([3]; human cavernosal tissue): caused contraction; Concentration through which dose-dependent relaxation was seen ([3]; human cavernosal tissue, contraction at higher concentration): ≤ 0.3 µM"
–,–,–,210 nM,CCCCC[C@H](O)/C=C/[C@H]1[C@H](O)CC(=O)[C@@H]1CCCCCCC(=O)O [PGE1],–
